We go through two compounds from patent US20230220443A1, “CHARACTERIZATION OF S-ADENOSYL-L-METHIONINE-CONSUMING ENZYMES WITH 1-STEP EZ-MTASE: A UNIVERSAL COUPLED-ASSAY” (ALBERT EINSTEIN COLLEGE OF MEDICINE, priority 2017, published 2023).

“Also recorded” adds a separate entry of the source. Read-outs that look alike come from different tables or passages of the source.

Assay [1] deals with T1, GsSDMT (Galdieria sulphuraria, UniProt M2XPA0).
T1 sequence (M2XPA0 2-297): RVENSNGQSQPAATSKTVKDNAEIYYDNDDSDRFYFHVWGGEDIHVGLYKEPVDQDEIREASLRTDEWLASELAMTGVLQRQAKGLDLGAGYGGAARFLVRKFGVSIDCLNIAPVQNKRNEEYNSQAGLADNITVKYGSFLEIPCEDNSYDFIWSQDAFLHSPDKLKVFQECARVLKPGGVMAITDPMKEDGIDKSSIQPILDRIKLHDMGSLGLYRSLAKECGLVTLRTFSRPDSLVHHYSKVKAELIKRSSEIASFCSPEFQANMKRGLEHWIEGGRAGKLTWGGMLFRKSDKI
As to the kind of experiment: 1-Step EZ-MTase UV-based coupled assay, GsSDMT kinetics. The assay is classed as biochemical. As to conditions: for Km / kcat: pH=7.80, co-substrate saturating. The protocol:
Kinetic behavior for sarcosine against GsSDMT (SAM sat.)—Experiments were conducted following matching CePRMT5 protocol above. Briefly, the 100-μL mixtures from a same row contained 100 mM phosphate buffer pH=7.80, 1 mM βME, 5% glycerol, 100 μM MgCl2, 4 μM coupling deaminase TM0936, 976 nM GsSDMT and various sarcosine concentrations (0.5-12.5 mM; in the first well, sarcosine was omitted to account for background signal—natural decomposition of SAM). Reactions started upon addition of SAM (750 μM saturating final concentration), 60-μL volumes were transferred onto UV plate and absorbance was recorded. Initial rates were first corrected for background signal, and then plotted against sarcosine concentrations. Fit to the Michaelis-Menten equation provided corresponding kinetic parameters.
Kinetic behavior for SAM against GsSDMT (sarcosine sat.)—Experiments were conducted following matching CePRMT5 protocol above. Briefly, the measurements consisted of two experimental subsets: MTase reactions (both SAM and sarcosine added) and MTase blanks (SAM was added without sarcosine to account for natural SAM decomposition). The 100-μL reaction mixtures from a same row contained 100 mM phosphate buffer pH=7.80, 1 mM βME, 5% glycerol, 100 μM MgCl2, 4 μM coupling deaminase TM0936, 195 nM GsSDMT and various SAM concentrations (49.9-750.2 μM). Reactions started upon addition of either sarcosine (10 mM saturating final concentration; MTase reactions) or water (MTase blanks), 60-μL volumes were transferred onto UV plate and absorbance was recorded at 263 nm. Initial rates were first corrected for background signal, and then plotted against SAM concentrations. Fit to the Michaelis-Menten equation provided corresponding kinetic parameters.
(§1) Kinetic behavior for 8-aza-SAM against MTases (acceptor sat.)—Briefly, kinetic parameters were determined at 20° C. in a UV-Star 96-well flat bottom plate (Greiner Bio-One, #655801) by continuous monitoring of absorbance at 282 nm using a SpectraMax M5 instrument (Molecular Devices). As for SAM experiments, the measurements consisted of two experimental subsets: MTase reactions (both 8-aza-SAM and acceptor added) and MTase blanks (8-aza-SAM was added without acceptor to account for natural 8-aza-SAM decomposition). The 250-μL (60-μL) reaction mixtures from a same row contained 50 mM phosphate buffer pH=7.60 (7.80), 1 mM βME, 10% glycerol (5% glycerol, 100 μM MgCl2), 4 μM coupling deaminase TM0936, either 1.5 μM CePRMT5 or 402 nM TbPRMT7 (or 610 nM GsSDMT) and various 8-aza-SAM concentrations. […] Initial rates were first corrected for background signal, then plotted against 8-aza-SAM concentrations and fitted to the Michaelis-Menten equation to yield corresponding kinetic parameters.

Assay [2] concerns the target T2, NcDIM-5 (Neurospora crassa, UniProt Q8X225).
T2 construct: GST; made in house
T2 sequence (Q8X225 1-331): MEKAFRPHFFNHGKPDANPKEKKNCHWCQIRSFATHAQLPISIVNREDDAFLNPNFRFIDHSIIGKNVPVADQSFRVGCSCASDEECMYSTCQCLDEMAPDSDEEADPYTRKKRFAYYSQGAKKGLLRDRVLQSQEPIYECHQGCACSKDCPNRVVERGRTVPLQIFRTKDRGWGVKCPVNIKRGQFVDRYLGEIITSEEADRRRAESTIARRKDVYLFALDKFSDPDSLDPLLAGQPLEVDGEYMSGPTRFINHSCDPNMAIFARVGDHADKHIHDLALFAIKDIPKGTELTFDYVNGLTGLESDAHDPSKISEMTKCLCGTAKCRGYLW
As to conditions: literature values; cited from earlier work.

Assay [3] concerns the target T1, GsSDMT. As to conditions: lit. (54); cited from earlier work.
In assay [4] the target is T2, NcDIM-5. The assay is classed as biochemical. The method, then: Kinetic behavior for peptide H3(1-53) against NcDIM-S(SAM sat.)—Experiments were conducted following matching CePRMT5 protocol above. Briefly, the 250-μL reaction mixtures from a same row contained 25 mM glycine buffer pH=9.50, 1 mM βME, 10% glycerol, 50 mM NaCl, 4 μM coupling deaminase TM0936, 7.6 nM NcDIM-5 and various peptide concentrations (0.51-12.68 μM; in the first well, peptide acceptor was omitted to account for background signal—natural decomposition of SAM). Reactions started upon addition of SAM (25.8 μM saturating final concentration) and absorbance was recorded. Initial rates were first corrected for background signal, then plotted against H3(1-53) concentrations. Fit to the Michaelis-Menten equation provided corresponding kinetic parameters.
as §1
where [MTase] and [8-aza-SAM] are the total concentration of methyltransferase and methyl donor, respectively; Km is the Michaelis constant, Kf is the substrate inhibition constant and kcat is the turnover for 8-aza-SAM substrate.

Where [5] appears, read: pH=9.50, 25 μM SAM, 7.6 nM NcDIM-5.

As usually defined, the Km is the substrate concentration at which the rate is half of its maximum. A word on the kcat: it is the number of substrate molecules converted per active site and unit of time at saturation. Consider `C[S+](CC[C@H](N)C(=O)O)C[C@H]1O[C@@H](n2cnc3c(N)ncnc32)[C@H](O)[C@@H]1O` (stereo partly drawn) [SAM, S-adenosyl-L-methionine], for which the Michaelis-Menten constant (Km) on GsSDMT [1] is 95 ± 18 µM; on NcDIM-5 [2] it was 0.68 ± 0.2 µM. Besides, the catalytic constant (kcat) is 0.7 ± 0.033 s⁻¹ on GsSDMT [1], 0.000861 s⁻¹ at NcDIM-5 [2] and 0.867 ± 0.067 s⁻¹ on GsSDMT [3].

On to `C[S+](CC[C@H](N)C(=O)O)C[C@H]1O[C@@H](n2nnc3c(N)ncnc32)[C@H](O)[C@@H]1O` (stereo partly drawn) [8-aza-SAM, S-8-aza-adenosyl-L-methionine], for which, on GsSDMT [1], the “substrate inhibition (inhibitory behavior of the analog)” value is recorded as “not observed”, the Km was 443 ± 33 µM and the kcat was 1.35 ± 0.05 s⁻¹. Further, the “acceptance of cofactor analog as substrate” value at NcDIM-5 [4] is given as “unable to accept; also recorded: unable to process”. Besides, at NcDIM-5 [4] (setting [5]), the Michaelis constant (Km) entry is “NOT A” and the turnover number (kcat) entry is “NOT A”.
